Measured values published in US20120214818A1, “METHODS OF TREATING DIASTOLIC DYSFUNCTION AND RELATED CONDITIONS” (THE BOARD OF TRUSTEES OF THE UNIVERSITY OF ILLINOIS, priority 2009, published 2012).
Several values for one entry are separate records, joined by “and”; a condition that tells them apart may be missing. Equal values may be shown once.

Tests used:
[1] = test system: isolated ventricular myocytes from DOCA-salt and sham mice; assay: Calcium transient measurements (Fura-2AM) in isolated cardiomyocytes; assay type: cell-based, mouse; details: 10 μM ranolazine
Procedure: Cell shortening and calcium transient measurements: The mechanical properties of the cardiomyocytes were assessed using an IonOptix Myocam System (Ionoptix Inc., Milton, Mass.). Unloaded cardiomyocytes were placed on a glass slide and allowed to adhere for 10 min. Cardiomyocytes were then imaged with an inverted microscope and perfused with a Tyrode's buffer containing 1.2 mmol/L calcium at room temperature. Cardiomyocytes were paced at 0.5 Hz for 10 ms duration, and sarcomere shortening and relengthening were assessed using the following indices: peak fractional shortening (FS), time to 90% peak shortening, and τ, the relaxation time constant (a0+[…]^t/τ, t=time). […] For calcium transient measurements, cardiomyocytes were loaded with 1 μmol/L Fura 2-AM for 10 min at room temperature, and fluorescence measurements were recorded with a dual-excitation fluorescence photomultiplier system (IonOptix). […] The emitted fluorescence was detected at 510 nm. To take into account any inference from background fluorescence, the background fluorescence for each cardiomyocyte was determined by moving the cardiomyocyte out of the view and recording the fluorescence from the bath solution alone. The mechanical properties of the cardiomyocytes were assessed using an IonOptix Myocam System (Ionoptix Inc., Milton, Mass.). […] The emitted fluorescence was detected at 510 nm. […]

DOCA-salt and sham mice = assay: Invasive hemodynamic (pressure-volume catheter) assessment of diastolic dysfunction, acute ranolazine; assay type: in vivo, mouse; details: for DBP, diastolic blood pressure / EDPVR, end diastolic pressure volume relationship (slope) / EF, ejection fraction (invasive) / ESPVR, end systolic pressure volume relationship / HR, heart rate / LVEDP, left ventricular end diastolic pressure / LVESP, left ventricular end systolic pressure / dP/dt max / dP/dt min: ranolazine 5 mg/kg i.v. then 4.8 mg/kg/h; for SBP, systolic blood pressure: ranolazine 5 mg/kg intravenous injection then infusion 4.8 mg/kg/h
Procedure: Generation of DOCA-salt mouse model: Previously, it was shown that this model leads to mild hypertension, myocardial oxidative stress, and diastolic dysfunction.^20 A gradual and mild elevation in blood pressure was induced by unilateral nephrectomy, subcutaneous implantation of a controlled release deoxycorticosterone acetate (DOCA) pellet (0.7 mg/d; Innovative Research of America, Sarasota, Fla.), and substituting drinking water with 1.05% saline. Control animals underwent a sham operation, had placebo pellet implantation, and received water without salt. Invasive assessment of diastolic dysfunction: Mice were anesthetized with 1-1.5% isoflurane and maintained at 37° C. The pressure-volume (PV) catheter was inserted into the right common carotid artery and advanced into the LV. […] Volume and parallel conductance calibration were performed as previously described.^20 Baseline hemodynamic measurements were obtained, and subsequently, the mice received an intravenous injection of ranolazine (5 mg/kg) followed by an infusion at 4.8 mg/kg/h, while additional hemodynamic measurements were recorded. Blood samples were obtained during the last five minutes of the procedure to determine the plasma ranolazine concentration. Previously, we have shown that this model leads to mild hypertension, myocardial oxidative stress, and diastolic dysfunction.^20 A gradual and mild elevation in blood pressure was induced by unilateral nephrectomy, subcutaneous implantation of a controlled release deoxycorticosterone acetate (DOCA) pellet (0.7 mg/d; Innovative Research of America, Sarasota, Fla.), and substituting drinking water with 1.05% saline. Control animals underwent a sham operation, had placebo pellet implantation, and received water without salt. Mice were anesthetized with 1-1.5% isoflurane and maintained at 37° C. The pressure-volume (PV) catheter was inserted into the right common carotid artery and advanced into the LV. […] Volume and parallel conductance calibration were performed as previously described.^20 Baseline hemodynamic measurements were obtained, and subsequently to determine the acute effect, the mice received an intravenous injection of ranolazine (5 mg/kg) followed by an infusion at 4.8 mg/kg/h, while additional hemodynamic measurements were recorded. Blood samples were obtained during the last five minutes of the procedure to determine the plasma ranolazine concentration.

patients = details: cited from earlier work
DOCA-salt mice = assay: Myofilament calcium sensitivity of fibers from mice chronically treated with ranolazine; assay type: in vivo, mouse; details: fibers from hearts of DOCA-salt mice chronically treated with ranolazine vs. DOCA-salt mice
Procedure: A special diet contained 5 mg ranolazine, 0.3 mg P450 inhibitor, and 0.25 mg red food color was pressed into a 1-g nutritionally complete grain-based tablet (Harlan, Madison, Wis.). The control diet contained 0.3 mg P450 inhibitor and 0.25 mg yellow food color pressed into the same type of 1-g tablets. DOCA-salt and sham mice consumed daily ˜1 g of the special diet from postoperative day 11 to 18. […] We also determined Ktr, which is a measure of the rate of re-entry of cross-bridges into force generating states.

For `COc1ccccc1OCC(O)CN1CCN(CC(=O)Nc2c(C)cccc2C)CC1` (stereo not shown) [ranolazine], the “Ca2+ transients” value [1] was “did not affect either group”, the “Pearson correlation coefficient of EDPVR with serum/plasma ranolazine levels” value (DOCA-salt and sham mice; DOCA-salt mice, n=6, p<0.05) was 0.70 and the “DBP, diastolic blood pressure” value (DOCA-salt and sham mice; DOCA-salt mice) was 73 ± 2 mmHg. The “EDPVR, end diastolic pressure volume relationship (slope)” value (DOCA-salt and sham mice; DOCA-salt mice) was 0.17±0.01 mmHg/μL, the “EF, ejection fraction (invasive)” value (DOCA-salt and sham mice; DOCA-salt mice) was 67 ± 4% and the “ESPVR, end systolic pressure volume relationship” value (DOCA-salt and sham mice; DOCA-salt mice) was 4.1 ± 0.2 mmHg/μL. The “HR, heart rate” value (DOCA-salt and sham mice; DOCA-salt mice) was 588 ± 16 bpm, the “LVEDP, left ventricular end diastolic pressure” value (DOCA-salt and sham mice; DOCA-salt mice) was 3.5±0.4 mmHg and 3.6 ± 0.4 mmHg and the “LVESP, left ventricular end systolic pressure” value (DOCA-salt and sham mice; DOCA-salt mice) was 98 ± 3 mmHg. The dP/dt max (DOCA-salt and sham mice; DOCA-salt mice) was 12,495 ± 555 mmHg/sec, the dP/dt min (DOCA-salt and sham mice; DOCA-salt mice) was −12,211 ± 792 mmHg/sec and the “SBP, systolic blood pressure” value (DOCA-salt and sham mice; DOCA-salt mice) was 102 ± 3 mmHg. The “DBP, diastolic blood pressure” value (DOCA-salt and sham mice; sham mice) was 58 ± 2 mmHg, the “EDPVR, end diastolic pressure volume relationship (slope)” value (DOCA-salt and sham mice; sham mice) was 0.18±0.01 mmHg/μL and the “EF, ejection fraction (invasive)” value (DOCA-salt and sham mice; sham mice) was 73 ± 5%. For the same compound, the “ESPVR, end systolic pressure volume relationship” value (DOCA-salt and sham mice; sham mice) was 3.9 ± 0.5 mmHg/μL, the “HR, heart rate” value (DOCA-salt and sham mice; sham mice) was 620 ± 5 bpm and the “LVEDP, left ventricular end diastolic pressure” value (DOCA-salt and sham mice; sham mice) was 4.2 ± 0.5 mmHg. The “LVESP, left ventricular end systolic pressure” value (DOCA-salt and sham mice; sham mice) was 84 ± 3 mmHg and 85 ± 3 mmHg, the dP/dt max (DOCA-salt and sham mice; sham mice) was 12,032 ± 787 mmHg/sec and the dP/dt min (DOCA-salt and sham mice; sham mice) was −10,083 ± 685 mmHg/sec. The “SBP, systolic blood pressure” value (DOCA-salt and sham mice; sham mice) was 93 ± 3 mmHg, the proarrhythmic risk (patients; clinically relevant doses, MERLIN TIMI 36 investigators) was “no proarrhythmic risk” and the “relationship with the QTc interval” value (patients; human, in vivo) was “positive linear relationship”. The “maximal tension in response to Ca2+” value (DOCA-salt mice) was “significantly reduces maximal tension”.
